Reference: ChEMBL document CHEMBL4334480, “Anti-inflammatory Ellagitannins from Cleidion brevipetiolatum for the Treatment of Rheumatoid Arthritis” (J Nat Prod, 2019)
Active and inactive are the calls of the source. The calls are words filed in the database; no cut-off is given here.

Assays:
[1] = system: RAW264.7; assay: Anti-inflammatory activity in mouse RAW264.7 cells assessed as inhibition of LPS-induced nitric oxide production preincubated for 2 hrs followed by LPS stimulation and measured after 24 hrs by Griess assay; format: functional, cell-based
[2] = system: RAW264.7; assay: Cytotoxicity against mouse RAW264.7 cells after 24 hrs by MTT assay; format: cell-based; conditions: raw264.7, 24 h
[3] = biological target: MAP kinase p38 (Mus musculus) (UniProt P47811+O08911+Q9WUI1+Q9Z1B7); assay: Inhibition of LPS-induced P38 phosphorylation in mouse RAW264.7 cells at 5 to 50 uM preincubated for 2 hrs followed by LPS-stimulation after 22 hrs by Western blot analysis; format: cell-based
[4] = Toxicity in DBA/1J mouse assessed as effect on behavioral changes at 50 mg/kg, po; format: organism-based; conditions: in vivo
[5] = biological target: Transcription factor p65 (Mus musculus) (UniProt Q04207); assay: Inhibition of LPS-induced NFkappaB p65 nuclear translocation in mouse RAW264.7 cells at 5 to 50 uM preincubated for 2 hrs followed by LPS-stimulation after 22 hrs by Western blot analysis; format: cell-based
Transcription factor p65 (Mus musculus), sequence (Q04207 whole entry): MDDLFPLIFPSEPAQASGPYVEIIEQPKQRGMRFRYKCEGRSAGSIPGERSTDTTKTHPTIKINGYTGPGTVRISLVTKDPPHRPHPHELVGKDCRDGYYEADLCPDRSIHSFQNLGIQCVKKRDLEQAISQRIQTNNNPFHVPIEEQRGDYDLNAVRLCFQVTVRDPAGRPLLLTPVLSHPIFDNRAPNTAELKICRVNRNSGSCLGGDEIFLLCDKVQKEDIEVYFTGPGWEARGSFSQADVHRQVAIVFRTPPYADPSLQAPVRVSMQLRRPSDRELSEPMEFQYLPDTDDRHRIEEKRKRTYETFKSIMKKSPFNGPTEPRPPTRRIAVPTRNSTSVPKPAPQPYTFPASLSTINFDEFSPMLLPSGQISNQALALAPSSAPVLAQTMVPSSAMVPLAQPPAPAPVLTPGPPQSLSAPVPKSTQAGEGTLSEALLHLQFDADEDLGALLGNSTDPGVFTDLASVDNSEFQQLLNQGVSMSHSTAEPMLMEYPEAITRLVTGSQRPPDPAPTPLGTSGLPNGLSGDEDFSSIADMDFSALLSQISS

[6] = system: Mus musculus; assay: Antiarthritic activity in collagen-induced rheumatoid arthritis DBA/1J mouse model assessed as reduction in hindlimb swelling at 50 mg/kg, po; format: functional, organism-based
[7] = Toxicity in DBA/1J mouse assessed as effect on body weight at 50 mg/kg, po; format: organism-based; conditions: in vivo
[8] = system: RAW264.7; assay: Antiinflammatory activity against mouse RAW264.7 cells assessed as reduction in LPS-induced IL-1beta mRNA expression compound preincubated for 2 hrs followed by LPS stimulation after 22 hrs by RT-PCR analysis; format: functional, cell-based
[9] = system: Mus musculus; assay: Antiinflammatory activity against carrageenan-induced paw oedema in ICR mouse assessed as reduction in NO level in serum at 50 mg/kg, po administered 30 mins prior to carrageenan challenge after 5 hrs post carrageenan; format: functional, organism-based
[10] = system: Mus musculus; assay: Antiinflammatory activity against carrageenan-induced paw edema in ICR mouse assessed as inhibition of paw edema at 50 mg/kg, po administered 30 mins prior to carrageenan challenge measured at 2 hrs post carrageenan challenge relative to control; format: functional
[11] = system: RAW264.7; assay: Antiinflammatory activity against mouse RAW264.7 cells assessed as effect on LPS-induced TNF-alpha mRNA expression at 5 to 50 uM preincubated for 2 hrs followed by LPS stimulation after 22 hrs by RT-PCR analysis; format: functional, cell-based
[12] = system: Mus musculus; assay: Antiarthritic activity in collagen-induced rheumatoid arthritis DBA/1J mouse model assessed as reduction in forelimb swelling at 50 mg/kg, po; format: functional, organism-based
[13] = system: Mus musculus; assay: Antiinflammatory activity against carrageenan-induced paw oedema in ICR mouse assessed as inhibition of paw edema at 50 mg/kg, po administered 30 mins prior to carrageenan challenge after 5 hrs post carrageenan challenge; format: functional, organism-based
[14] = system: RAW264.7; assay: Antiinflammatory activity against mouse RAW264.7 cells assessed as reduction in LPS-induced Cox2 protein expression compound preincubated for 2 hrs followed by LPS stimulation after 22 hrs by Western blot analysis; format: functional, cell-based
[15] = system: RAW264.7; assay: Inhibition of LPS-induced JNK phosphorylation in mouse RAW264.7 cells at 5 to 50 uM preincubated for 2 hrs followed by LPS-stimulation after 22 hrs by Western blot analysis; format: cell-based
[16] = system: Mus musculus; assay: Antiarthritic activity in collagen-induced rheumatoid arthritis DBA/1J mouse model at 50 mg/kg, po after 22 days; format: functional, organism-based
[17] = system: RAW264.7; assay: Antiinflammatory activity against mouse RAW264.7 cells assessed as reduction in LPS-induced iNOS mRNA expression compound preincubated for 2 hrs followed by LPS stimulation after 22 hrs by RT-PCR analysis; format: functional, cell-based
[18] = system: RAW264.7; assay: Antiinflammatory activity against mouse RAW264.7 cells assessed as reduction in LPS-induced iNOS protein expression compound preincubated for 2 hrs followed by LPS stimulation after 22 hrs by Western blot analysis; format: functional, cell-based
[19] = system: RAW264.7; assay: Antiinflammatory activity against mouse RAW264.7 cells assessed as reduction in LPS-induced Cox2 mRNA expression compound preincubated for 2 hrs followed by LPS stimulation after 22 hrs by RT-PCR analysis; format: functional, cell-based
[20] = biological target: T1, NF-kappa-B inhibitor alpha (Mus musculus) (UniProt Q9Z1E3); assay: Inhibition of LPS-induced IKBalpha phosphorylation mouse RAW264.7 cells at 5 to 50 uM preincubated for 2 hrs followed by LPS-stimulation after 22 hrs by Western blot analysis; format: cell-based
T1 sequence (whole entry): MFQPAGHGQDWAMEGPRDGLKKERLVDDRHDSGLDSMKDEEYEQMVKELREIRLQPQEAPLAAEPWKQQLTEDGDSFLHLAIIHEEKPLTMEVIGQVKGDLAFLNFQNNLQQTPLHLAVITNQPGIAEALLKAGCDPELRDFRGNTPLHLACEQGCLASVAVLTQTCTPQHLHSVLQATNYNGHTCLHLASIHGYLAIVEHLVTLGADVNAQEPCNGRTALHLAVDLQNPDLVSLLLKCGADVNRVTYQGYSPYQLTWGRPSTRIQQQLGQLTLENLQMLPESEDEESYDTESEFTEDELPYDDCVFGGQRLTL

[21] = system: RAW264.7; assay: Inhibition of LPS-induced ERK phosphorylation in mouse RAW264.7 cells at 5 to 50 uM preincubated for 2 hrs followed by LPS-stimulation after 22 hrs by Western blot analysis; format: cell-based
[22] = system: Mus musculus; assay: Antiinflammatory activity against carrageenan-induced paw oedema in ICR mouse assessed as reduction in NO level in serum at 20 mg/kg, po administered 30 mins prior to carrageenan challenge after 5 hrs post carrageenan; format: functional, organism-based
[23] = system: Mus musculus; assay: Antiinflammatory activity against carrageenan-induced paw oedema in ICR mouse assessed as inhibition of paw edema at 20 mg/kg, po administered 30 mins prior to carrageenan challenge measured at 2 hrs post carrageenan challenge relative to control; format: functional
[24] = system: Mus musculus; assay: Antiinflammatory activity against carrageenan-induced paw oedema in ICR mouse assessed as inhibition of paw edema at 20 mg/kg, po administered 30 mins prior to carrageenan challenge after 5 hrs post carrageenan challenge; format: functional, organism-based

Row | Structure (SMILES) | IC50 [1] [µM] | Activity [2] | also measured
1 | O=c1oc2c(O)c(O)cc3c(=O)oc4c(O)c(O)cc1c4c23 [ELLAGIC ACID] | > 50 | Non-Toxic | 
2 | C/C=C/c1ccc(O[C@@H]2O[C@H](CO)[C@H]3OC(=O)c4cc(O)c(O)c(O)c4-c4c(cc(O)c(O)c4O)C(=O)O[C@@H]3[C@H]2O)c(O)c1 | 2.1 | Non-Toxic | 
3 | C=CCc1ccc(O[C@@H]2O[C@H](CO[C@@H]3O[C@@H](C)[C@@H]4OC(=O)c5cc(O)c(O)c(O)c5-c5c(cc(O)c(O)c5O)C(=O)O[C@H]4[C@H]3O)[C@H]3OC(=O)c4cc(O)c(O)c(O)c4-c4c(cc(O)c(O)c4O)C(=O)O[C@@H]3[C@H]2O)cc1 | 1.9 | Non-Toxic | inhibition [3]: inactive; Activity [4]: Non-Toxic; inhibition [5]: Active; Activity [6]: Active; Activity [7]: Non-Toxic; Activity [8]: Dose-dependent effect; Activity [9]: Active; inhibition in vivo at 50 mg/kg [10]: 26.9%; Activity [11]: inactive; Activity [12]: Active; inhibition [13]: Active; Activity [14]: Dose-dependent effect; inhibition [15]: inactive; Activity [16]: Active; Activity [17]: Dose-dependent effect; Activity [18]: Dose-dependent effect; Activity [19]: Dose-dependent effect; inhibition [20]: Active; inhibition [21]: inactive
4 | O=C(O)c1cc(O)c(O)c(O)c1 [GALLIC ACID] | > 50 | Non-Toxic | 
5 | O=c1cc(-c2ccc(O)c(O)c2)oc2cc(O)cc(O)c12 [LUTEOLIN] | 5.8 | Non-Toxic | 
6 | COc1ccc2c(c1)c(CC(=O)O)c(C)n2C(=O)c1ccc(Cl)cc1 [INDOMETHACIN] |  |  | Activity [22]: Active; inhibition in vivo at 20 mg/kg [23]: 26.5%; inhibition [24]: Active
7 | C/C=C/c1ccc(O[C@@H]2O[C@H](CO[C@@H]3O[C@@H](C)[C@@H]4OC(=O)c5cc(O)c(O)c(O)c5-c5c(cc(O)c(O)c5O)C(=O)O[C@H]4[C@H]3O)[C@H]3OC(=O)c4cc(O)c(O)c(O)c4-c4c(cc(O)c(O)c4O)C(=O)O[C@@H]3[C@H]2O)cc1 | 3.6 | Non-Toxic | 

Second part, led by results:

Row | IC50 [1] [µM] | Structure (SMILES) | Activity [2] | also measured
8 | 8.2 | C/C=C/c1ccc(O[C@@H]2O[C@H](CO)[C@H]3OC(=O)c4cc(O)c(O)c(O)c4-c4c(cc(O)c(O)c4O)C(=O)O[C@@H]3[C@H]2O)cc1 | Non-Toxic | 
9 | > 50 | C=CCc1ccc(O[C@@H]2O[C@H](CO)[C@@H](O)[C@H](O)[C@H]2O)cc1 | Non-Toxic | 
10 | 29.2 | C/C=C/c1ccc(O[C@@H]2O[C@H](CO)[C@@H](O)[C@H](O)[C@H]2O)c(O)c1 | Non-Toxic | 
11 | > 50 | C/C=C/c1ccc(O[C@@H]2O[C@H](CO)[C@@H](O)[C@H](O)[C@H]2O)cc1 | Non-Toxic | 
12 | 3.9 | C=CCc1ccc(O[C@@H]2O[C@H](COC(=O)c3cc(O)c(O)c(O)c3)[C@H]3OC(=O)c4cc(O)c(O)c(O)c4-c4c(cc(O)c(O)c4O)C(=O)O[C@@H]3[C@H]2O)c(O)c1 | Non-Toxic | 
13 | > 50 | C=CCc1ccc(O[C@@H]2O[C@H](CO)[C@@H](O)[C@H](O)[C@H]2O)c(O)c1 | Non-Toxic | 
14 | 4.3 | C=CCc1ccc(O[C@@H]2O[C@H](CO)[C@H]3OC(=O)c4cc(O)c(O)c(O)c4-c4c(cc(O)c(O)c4O)C(=O)O[C@@H]3[C@H]2O)cc1 | Non-Toxic | 
15 | 4.1 | C=CCc1ccc(O[C@@H]2O[C@H](CO)[C@H]3OC(=O)c4cc(O)c(O)c(O)c4-c4c(cc(O)c(O)c4O)C(=O)O[C@@H]3[C@H]2O)c(O)c1 | Non-Toxic | 
